Test results published in US4965280A, “Antifungal carbinols” (E. I. Du Pont de Nemours and Company, priority 1989, dated 1990).
≈ marks a conversion by molar mass, not a printed value.

Legend:
Puccinia recondita = assay: Example G wheat leaf rust; format: in vivo; settings: 100 PPM, read-out: disease control rating, Ex. G
RICE JAP EFF = assay: Test C rice paddy; format: in vivo, Japonica rice; settings: Oryza sativa, 504 h, 21 days, read-out: plant response; for pest or weed control at 64 g/ha: 0064 G/HA; for pest or weed control at 125 g/ha: 0125 G/HA; for pest or weed control at 250 g/ha: 0250 G/HA; for pest or weed control at 500 g/ha: 0500 G/HA
Text: (§1) Sixteen cm diameter Airlite plastic pots were partially filled with Tama slit loam soil and the soil saturated with water. Japonica and Indica rice seedlings a the 2.0 to 2.5 leaf stage were transplanted into 1/3 of the pots. Into another third of the pots were transplanted seedling or sprouted tubers of water plantain (Alisma trivale), Scripus (Scirpus paludosus), Cyperus (Cyperus esculentus), and arrowhead (Sagittaria spp.). The remaining pots were planted with barnyardgrass (Echinochloa crusgalli) seeds and sprouted tubes of water chestnut (Eleocharis spp.). These weeds all represent major rice weeds or genera of weeds important in rice. Three to four days after planting, the water level was raised to 3 cm (about 1200 ml/pot) and maintained a this level throughout the test. Chemical treatments were applied directly to the paddy water, within 24 hours of raising the water, after being formulated in a nonphytotoxic solvent. The pots were maintained in the greenhouse.

[1] = system: Erysiphe graminis f. sp. tritici; assay: Example D wheat powdery mildew; format: in vivo; settings: Blumeria graminis, 144 h; 100 PPM; read-out: disease control rating, Ex. D
How it was run: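 Wheat seedlings receive a run-off foliar spray of compound suspended in purified water at 100 or 20 ppm. The carrier holds 250 ppm TREM 014 plus acetone amounting to 6% of final volume.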

WATERCHESTNUT = assay: Test C rice paddy; format: in vivo, Eleocharis spp.; settings: Eleocharis, 504 h, 21 days, read-out: plant response; for pest or weed control at 64 g/ha: 0064 G/HA; for pest or weed control at 125 g/ha: 0125 G/HA; for pest or weed control at 250 g/ha: 0250 G/HA; for pest or weed control at 500 g/ha: 0500 G/HA
Text: as §1

[2] = system: Fusarium oxysporum f. sp. cucumerinum; assay: Example L cucumber wilt; format: in vivo; settings: 336 h, 5 kg/ha, read-out: disease control rating, Ex. L
Method: […] Seeds and soil were then inoculated with a mixture of sand, cereal and mycelium of the fungus Fusarium oxysporum f. sp. cucumerinum, causal agent of cucumber wilt, and incubated in a growth chamber at 30° C. for 14 days. Disease ratings were then made.

Phytophthora infestans = assay: whole plant or invertebrate; format: in vivo; settings: Phytophthora infestans, in Solanum lycopersicum, read-out: disease control rating, Ex. H, 100 PPM
BARNYARDGRASS = assay: Test C rice paddy; format: in vivo, Echinochloa crusgalli; settings: Echinochloa crus-galli, 504 h, 21 days, read-out: plant response; for pest or weed control at 64 g/ha: 0064 G/HA; for pest or weed control at 125 g/ha: 0125 G/HA; for pest or weed control at 250 g/ha: 0250 G/HA; for pest or weed control at 500 g/ha: 0500 G/HA
Text: as §1

[3] = system: Cercosporidium personatum; assay: Example B Peanut Late Leafspot; format: in vivo; settings: Nothopassalora personata; 100 PPM; read-out: disease control rating, Ex. B
How it was run: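 Each compound is first taken up in acetone, which makes up 6% of the final spray volume. It is then suspended in purified water with 250 ppm TREM 014 at 100 or 20 ppm. Seedlings of peanut are sprayed until run-off.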

ARROWHEAD = assay: Test C rice paddy; format: in vivo, Sagittaria spp.; settings: Sagittaria, 504 h, 21 days, read-out: plant response; for pest or weed control at 64 g/ha: 0064 G/HA; for pest or weed control at 125 g/ha: 0125 G/HA; for pest or weed control at 250 g/ha: 0250 G/HA; for pest or weed control at 500 g/ha: 0500 G/HA
Text: as §1

Sclerotium rolfsii = assay: Example M southern blight; format: in vivo; settings: Agroathelia rolfsii, 336 h; 5 kg/ha; read-out: disease control rating, Ex. M
Method: […] Seeds and soil were then inoculated with a mixture of sand, cereal and mycelium of the fungus Sclerotium rolfsii, causal agent of sourthern blight, and incubated in a growth chamber at 30° C. for 14 days. Disease ratings were then made.

RICE INDICA EFF = assay: Test C rice paddy; format: in vivo; settings: Oryza sativa, 504 h, 21 days, read-out: plant response; for pest or weed control at 64 g/ha: 0064 G/HA; for pest or weed control at 125 g/ha: 0125 G/HA; for pest or weed control at 250 g/ha: 0250 G/HA; for pest or weed control at 500 g/ha: 0500 G/HA
Text: as §1

YELLOW NUTSEDGE = assay: Test C rice paddy; format: in vivo, Cyperus esculentus; settings: 21 days
Text: as §1

Botrytis cinerea = assay: Example C bean grey mold; format: in vivo; settings: Botrytis cinerea, 24 h, 100 PPM; read-out: disease control rating, Ex. C
How it was run: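 Compound is first dissolved in acetone, the acetone making up 6% of the final volume. The solution is then suspended in purified water with 250 ppm of the polyhydric alcohol ester surfactant TREM 014 to give 100 or 20 ppm. Seedlings of broad bean receive this spray until liquid runs off.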

Rhizoctonia solani [4] = assay: Example K cotton blight; format: in vivo; settings: 336 h, 5 kg/ha, read-out: disease control rating, Ex. K
Method: […] Seeds and soil were then inoculated with a mixture of sand, cereal and mycelium of the fungus Rhizoctonia solani, causal agent of cotton blight, and incubated in a growth chamber at 30° C. for 14 days. Disease ratings were then made.

Rhizoctonia solani [5] = assay: Example F rice sheath blight; format: in vivo; settings: Rhizoctonia solani, 144 h, 100 PPM; read-out: disease control rating, Ex. F
How it was run: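 Rice seedlings receive a run-off spray of compound suspended at 100 or 20 ppm. The carrier is purified water containing 250 ppm of a polyhydric alcohol ester surfactant, with acetone making up 6% of the final volume.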

Venturia inaequalis = assay: Example A apple scab; format: in vivo; settings: 100 PPM, read-out: disease control rating, Ex. A
How it was run: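 Apple seedlings receive a run-off spray of compound suspended at 100 or 20 ppm. The spray liquid is purified water holding 250 ppm TREM 014, a polyhydric alcohol ester surfactant, plus acetone at 6% of final volume as the solvent.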

[6] = system: Candida albicans ATCC 11651; assay: In vitro antifungal MIC, microtiter broth dilution; settings: Candida albicans, ATCC11651, 24 h, read-out: MIC values, C. albicans, 30°, 24 hours

SMILES | pest or weed control at 100 ppm (Puccinia recondita) | pest or weed control at 64 g/ha (RICE JAP EFF) | pest or weed control at 125 g/ha (RICE JAP EFF) | pest or weed control at 250 g/ha (RICE JAP EFF) | pest or weed control at 500 g/ha (RICE JAP EFF) | pest or weed control at 1000 g/ha (RICE JAP EFF) | pest or weed control at 100 ppm [1] | pest or weed control at 64 g/ha (WATERCHESTNUT) | pest or weed control at 125 g/ha (WATERCHESTNUT) | pest or weed control at 250 g/ha (WATERCHESTNUT) | pest or weed control at 500 g/ha (WATERCHESTNUT) | pest or weed control at 1000 g/ha (WATERCHESTNUT) | pest or weed control at 5000 g/ha [2] | pest or weed control at 100 ppm (Phytophthora infestans) | pest or weed control at 64 g/ha (BARNYARDGRASS) | pest or weed control at 125 g/ha (BARNYARDGRASS) | pest or weed control at 250 g/ha (BARNYARDGRASS) | pest or weed control at 500 g/ha (BARNYARDGRASS) | pest or weed control at 1000 g/ha (BARNYARDGRASS) | pest or weed control at 100 ppm [3] | further results
C=C(c1ccc(F)cc1)C(O)(Cn1ncnc1S)c1ccc(F)cc1F (centres unmarked) [Example 1304] | 100% | 0% | 0% | 0% | 0% | 40% | 100% | 0% | 0% | 0% | 0% | 50% | 0% | 0% | 85% | 100% | 100% | 98% | 100% | 100% | pest or weed control at 64 g/ha (ARROWHEAD): 0%; pest or weed control at 125 g/ha (ARROWHEAD): 0%; pest or weed control at 250 g/ha (ARROWHEAD): 0%; pest or weed control at 500 g/ha (ARROWHEAD): 0%; pest or weed control at 1000 g/ha (ARROWHEAD): 30%; pest or weed control at 5000 g/ha (Sclerotium rolfsii): 0%; pest or weed control at 64 g/ha (RICE INDICA EFF): 0%; pest or weed control at 125 g/ha (RICE INDICA EFF): 0%; pest or weed control at 250 g/ha (RICE INDICA EFF): 0%; pest or weed control at 500 g/ha (RICE INDICA EFF): 0%; pest or weed control at 1000 g/ha (RICE INDICA EFF): 40%; plant response (YELLOW NUTSEDGE; 0064 G/HA): 0; plant response (YELLOW NUTSEDGE; 0125 G/HA): 0; plant response (YELLOW NUTSEDGE; 0250 G/HA): 0; plant response (YELLOW NUTSEDGE; 0500 G/HA): 0; plant response (YELLOW NUTSEDGE; 1000 G/HA): 0; pest or weed control at 100 ppm (Botrytis cinerea): 97%; pest or weed control at 5000 g/ha (Rhizoctonia solani [4]): 0%; pest or weed control at 100 ppm (Rhizoctonia solani [5]): 88%; pest or weed control at 100 ppm (Venturia inaequalis): 100%
C=C(c1ccccc1)C(O)(Cn1cncn1)c1ccc(Cl)cc1Cl (centres unmarked) [Example 50, 2-(2,4-Dichlorophenyl)-3-phenyl-1-(1H-1,2,4-triazol-1-yl)-3-buten-2-ol] | 100% | 0% | 0% | 30% | 60% | 70% | 95% | 0% | 0% | 0% | 0% | 0% | 0% | 0% | 0% | 0% | 60% | 70% | 70% | 100% | MIC [6]: 0.1 µg/mL (≈ 0.278 µM); pest or weed control at 64 g/ha (ARROWHEAD): 0%; pest or weed control at 125 g/ha (ARROWHEAD): 0%; pest or weed control at 250 g/ha (ARROWHEAD): 0%; pest or weed control at 500 g/ha (ARROWHEAD): 30%; pest or weed control at 1000 g/ha (ARROWHEAD): 50%; pest or weed control at 64 g/ha (RICE INDICA EFF): 0%; pest or weed control at 125 g/ha (RICE INDICA EFF): 40%; pest or weed control at 250 g/ha (RICE INDICA EFF): 30%; pest or weed control at 500 g/ha (RICE INDICA EFF): 70%; pest or weed control at 1000 g/ha (RICE INDICA EFF): 80%; plant response (YELLOW NUTSEDGE; 0064 G/HA): 0; plant response (YELLOW NUTSEDGE; 0125 G/HA): 0; plant response (YELLOW NUTSEDGE; 0250 G/HA): 0; plant response (YELLOW NUTSEDGE; 0500 G/HA): 30; plant response (YELLOW NUTSEDGE; 1000 G/HA): 50; pest or weed control at 100 ppm (Botrytis cinerea): 98%; pest or weed control at 100 ppm (Rhizoctonia solani [5]): 93%; pest or weed control at 100 ppm (Venturia inaequalis): 100%
C=C(c1ccc(F)cc1)C(O)(Cn1ncnc1I)c1ccc(F)cc1F (centres unmarked) [Example 1381] | 100% | 0% | 0% | 20% | 40% | 60% | 98% | 0% | 0% | 0% | 0% | 0% | 0% | 0% | 55% | 55% | 60% | 100% | 100% | 100% | pest or weed control at 64 g/ha (ARROWHEAD): 0%; pest or weed control at 125 g/ha (ARROWHEAD): 0%; pest or weed control at 250 g/ha (ARROWHEAD): 0%; pest or weed control at 500 g/ha (ARROWHEAD): 0%; pest or weed control at 1000 g/ha (ARROWHEAD): 0%; pest or weed control at 5000 g/ha (Sclerotium rolfsii): 0%; pest or weed control at 64 g/ha (RICE INDICA EFF): 0%; pest or weed control at 125 g/ha (RICE INDICA EFF): 0%; pest or weed control at 250 g/ha (RICE INDICA EFF): 20%; pest or weed control at 500 g/ha (RICE INDICA EFF): 40%; pest or weed control at 1000 g/ha (RICE INDICA EFF): 60%; plant response (YELLOW NUTSEDGE; 0064 G/HA): 0; plant response (YELLOW NUTSEDGE; 0125 G/HA): 0; plant response (YELLOW NUTSEDGE; 0250 G/HA): 0; plant response (YELLOW NUTSEDGE; 0500 G/HA): 40; plant response (YELLOW NUTSEDGE; 1000 G/HA): 50; pest or weed control at 100 ppm (Botrytis cinerea): 97%; pest or weed control at 5000 g/ha (Rhizoctonia solani [4]): 50%; pest or weed control at 100 ppm (Rhizoctonia solani [5]): 73%; pest or weed control at 100 ppm (Venturia inaequalis): 100%
